Measurements published in patent publication US20050137251A1, “Dexanabinol and dexanabinol analogs regulate inflammation related genes” (priority 2002, published 2005).

Experiments:
[1] = target: recombinant COX-2 (Homo sapiens, UniProt P35354); assay: In vitro enzymatic activity of recombinant COX-2 (PGF2α EIA); type: biochemical; details: purified COX-2, test compounds up to 10 μM, 5 min preincubation, substrate AA
[2] = test system: activated microglia cells; assay: Activated microglia (F4/80 immunohistochemistry) in hippocampus of LPS injected mice brains; type: in vivo; details: 20 mg/kg, 72 hours after LPS
Method: The local i.c.v. injection of LPS in mice brain stimulates a wide range of inflammatory responses and cascades where various cytokines and chemokines are implicated. Following the results obtained in examples 3 and 4, we decided to assess the effect of additional active compounds of the invention on other genes involved in the inflammatory response. Specifically, we tested the impact of dexanabinol and PRS-211,092, both at 20 mg/kg, on the expression of pro-inflammatory IL-1β cytokine. The protocol was basically as previously described with minor modifications. The amount of LPS injected in the mice brain was raised to 250 ng and the animals were sacrificed 24 hours after LPS and treatment injection for mRNA analysis, carried out as previously described. Moreover, some animals were kept alive and sacrificed 72 hours after LPS and treatment injection for immunohistochemical analysis. For this purpose, after euthanizing the animals by injecting i.p. 100 mg/kg of sodium pentobarbitone, brains were removed and fixed in 4% formaldehyde for at least 72 hours. Brains were then washed with PBS and transferred for cryoprotection in a solution of 30% sucrose in PBS, until they sank. […] Quantitative analysis was carried out by counting the number of immunoreactive cells/mm^2 at the level of the hippocampus.

[3] = test system: IL-2 gene expression; assay: IL-2 gene expression in Jurkat T cells activated with PMA and calcium ionophore; type: cell-based, human; details: 10 μM, RNA 6 hrs after activation
Method: The human acute lymphoma T cell line Jurkat (ATCC # TIB 152) was used to test the possible immunosuppressive effect of dexanabinol and its analogs on T cell activation. […] 2×10^6 cells in one milliliter were stimulated using 10 ng/ml of PMA (Sigma) and 1 μM A23187 calcium ionophore (Sigma). […] The controls and test compounds were added at indicated concentrations one hour before stimulation.
The results are plotted after normalization to cyclophilin A expression.

[4] = test system: Aspc-1; assay: Aspc-1 pancreatic tumor cell proliferation (crystal violet); type: cell-based; details: up to 15 μM, 24 hours
Method: Cells from several tumor-derived cell lines are tested for their proliferation capacity in presence of our test compounds. Pancreatic tumor cell lines were obtained from ATCC. Panc-1 (ATCC # CRL-1469) were cultured in DMEM supplemented with 4 mM Glutamine, 4.5 g/L glucose, 1.5 g/L bicarbonate, antibiotics (penicillin, nystatin and streptomycin) and 10% heat inactivated fetal calf serum. Aspc-1 (ATCC # CRL-1682) were cultured in RPMI supplemented with 2 mM Glutamine, 10 mM HEPES, 1 mM sodium pyruvate, 4.5 g/L glucose, 1.5 g/L bicarbonate, antibiotics (penicillin, nystatin and streptomycin) and 20% heat inactivated fetal calf serum. Cells were seeded in a 24 well plate (10^5 cells/ml/well) and grown overnight. The cells are incubated with the test compounds (1-100 μM) or vehicle (0.1% DMSO final concentration). Cell viability was determined 24 hours later using standard crystal violet staining. The culture medium was removed from the wells and the cells were fixed by adding 1 ml/well of 2% formaldehyde in PBS for 10 minutes. […] The plates were agitated for 15 minutes at room temperature and 100 μl were transferred in duplicate to a 96 well plate for reading. Optical density (OD) of the cells was measured at 620 nm in an ELISA reader and results are expressed as % viable cells. Absorbance of untreated cells is recorded as 100%.

[5] = test system: TH-immunoreactive cells at the SNpc (MPTP-induced dopaminergic toxicity); assay: MPTP short-term model: TH immunoreactive cells at the SNpc; type: in vivo, mice
Method: The mice (C57/BL male mice, average weight 30 g, Harlan, Israel) were administered i.p. with 4 injections of MPTP (Sigma, USA) (20 mg/kg, 5 ml/kg) in saline (Teva Medical Israel) at 2 hours interval on day 1. The test compounds and vehicle control (cremophor:ethanol diluted in saline) were injected i.p. once just before the first MPTP administration at a volume dose of 5 ml/kg. Dexanabinol was tested at 10, 20, and 30 mg/kg and PRS-211,220 was tested at 0.5, 1, and 5 mg/kg. Each treatment group was composed of at least seven animals. Seven days following the MPTP treatment the animals are euthanized by i.p. administration of 100 mg/kg pentobarbitone sodium (CTS, Israel) and their brains are removed for tyrosine hydroxylase (TH) detection using immunohistochemistry.
Brains were fixed by immersion in 4% formaldehyde for at least 72 hours. The brains were then washed with PBS and transferred to 30% sucrose in PBS until they sank. […] Quantitative analysis was carried out by counting the number of TH-immunoreactive cells/mm^2 at the widest area of the SNpc.
Treatment of the animals with the test compounds results in a dose-dependent preservation of the TH-IR cells. Percent preservation is calculated by dividing the number of rescued cells (treatment-MPTP) by the maximal possible number of rescued cells (saline-MPTP). […]

[6] = test system: IL-2 gene expression; assay: IL-2 gene expression in MCAo mice brains; details: 5 mg/kg i.v., 18 hrs following MCAo

Sequence of recombinant COX-2 (P35354 18-604): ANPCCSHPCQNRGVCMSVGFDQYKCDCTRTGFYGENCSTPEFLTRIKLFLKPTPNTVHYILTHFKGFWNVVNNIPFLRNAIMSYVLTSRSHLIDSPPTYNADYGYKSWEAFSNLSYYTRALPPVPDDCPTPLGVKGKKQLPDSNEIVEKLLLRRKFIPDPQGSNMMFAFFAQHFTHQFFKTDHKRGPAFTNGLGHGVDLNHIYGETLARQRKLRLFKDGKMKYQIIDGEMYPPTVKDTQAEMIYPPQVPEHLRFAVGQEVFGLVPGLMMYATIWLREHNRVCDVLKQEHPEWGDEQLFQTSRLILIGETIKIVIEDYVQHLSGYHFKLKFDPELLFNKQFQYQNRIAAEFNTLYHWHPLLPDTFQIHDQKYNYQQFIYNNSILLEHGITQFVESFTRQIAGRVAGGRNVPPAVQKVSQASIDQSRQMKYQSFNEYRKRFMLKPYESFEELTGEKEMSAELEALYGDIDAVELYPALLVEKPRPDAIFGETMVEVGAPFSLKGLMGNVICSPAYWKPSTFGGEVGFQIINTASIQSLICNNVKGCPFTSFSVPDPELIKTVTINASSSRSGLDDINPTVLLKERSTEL

CCCCCCC(C)(C)c1cc(O)c2c(c1)OC(C)(C)[C@H]1CC=C(CO)C[C@H]21 [dexanabinol, 1,1-dimethylheptyl-(3S,4S)-7-hydroxy-Δ^6-tetrahydrocannabinol]
Inhibition of COX-2 enzymatic activity [1]: no inhibitory effect | Reduction of the amount of activated microglia vs vehicle [2]: 40% | Reduction of IL-2 fold of activation [3]: 41% | Effect on Aspc-1 proliferation [4]: not affected | Preservation of TH-IR cells ([5]; 20 mg/kg i.p., seven days after MPTP): about 25% | Effect of increasing the dose on TH-IR cell preservation ([5]; 30 mg/kg vs 20 mg/kg): no significant effect | Reduction of IL-2 gene activation vs vehicle [6]: 177%
